# Experiments:
# [1] = Plasma pharmacokinetics, multiple ascending dose (MAD), 10 days; format: in vivo, human
# Description: MAD study was conducted after evaluating the tolerance of the single dose 100 mg cohort. In MAD part, volunteers were designed into five cohorts (100 mg q24h, 150 mg q24h, 100 mg q12h, 200 mg q24h, 150 mg q12h). […] The MAD part was initiated after the safety and tolerance evaluation from SAD 100 mg cohorts. Progression to higher MAD doses was allowed after review the safety data of the prior MAD cohorts.
# For MAD cohorts, blood samples were collected at 0, 0.25, 0.5, 1, 1.5, 2, 3, 4, 5, 6, 8 and 12 h on day 1; 0 h on day 2, 3, 4, 6 and 7; 0, 0.25, 0.5, 1, 1.5, 2, 3, 4, 5, 6, 8, 12, 24, 36 and 48 h on day 10. In food effect cohort, blood samples were collected at 0, 0.25, 0.5, 1, 1.5, 2, 3, 4, 5, 6, 8, 12, 24, 36, 48, 72, 96 and 120 h in period one of group A; 0, 0.25, 0.5, 1, 1.5, 2, 3, 4, 5, 6, 8, 12, 24, 36 and 48 h in period two of group A and the two periods of group B. Blood samples were centrifuged at 3,000 rpm for 10 min at 2–8 °C and stored at -80 °C until liquid chromatography-mass spectrophotometry (LC-MS/MS) analysis. Urine and feces samples were collected in period one of group A of food effect cohort with the intervals 0, 0–6, 6–12, 12–24, 24–48, 48–72, 72–96, 96–120 and 0–120 h, respectively. […]
# [2] = PK, single intragastric dose; format: in vivo, rats
# Description: Suzhou Zelgen Biopharmaceuticals Co., Ltd. Jaktinib Hydrochloride Tablets Chemical Drug Class 1 New Drug […]
# Gender Tma x Cma x AUC0-t AUC0-∞ MRT t1/2 […]
# Pharmacokinetic Study of Single-Dose Intragastric Administration in […]
# After a single intragastric administration of 15.3, 30.5 and 61 mg/kg of ZG0128 […]
# drug in three dose groups were 5.74, 8.33 and 12.4 μg/mL, respectively. […]
# ZG0245 was lower than the proportional increase in dose, the increase in the AUC0-t of ZG0163 was directly proportional to the increase in dose, and the increase in the AUC0-t of the metabolite ZG0245 was slightly higher than the proportional increase in dose. Based on the average value of AUC0-t, the absolute bioavailability of the drug in rats receiving a single intragastric administration of 15.3 mg/kg of […] was 40.0%. […]
# [3] = PK, 7-day intragastric dosing; format: in vivo, rats; details: for AUC0-t / AUC0-∞ / Cmax / Tmax / t1/2: 30.5 mg/kg (multiple dose)
# Description: After 7 consecutive days of continuous intragastric administration (30.5 mg/kg once a day) of ZG0128 in rats, the plasma concentration reached a steady state on day […]
# values obtained after the single-dose administration, respectively. The Cmax and AUC0-t of the metabolite ZG0245 were 1.19 and 1.52 times the values obtained after the single-dose administration, respectively. […]
# consecutive days of administration, there was no significant accumulation of ZG0163 and the metabolite ZG0245 in rats. The pharmacokinetic parameters obtained after […]
# Table 12. Pharmacokinetic parameters of ZG0163 in rats given different doses of ZG0128 via oral gavage (n = 6, male:female=1:1).
# Dosage Gender Tmax Cmax AUC0-t AUC0-∞ MRT t1/2
molecule,measurement,setting,value
Jaktinib,accumulation factor Rac (90% CI),[1]; 100 mg q12h,1.24
same,"Cmax, geometric mean (CV%)","[1]; 100 mg q12h, Day 1",204.68 (36.2) ng/ml
same,"Tmax, median (min–max)","[1]; 100 mg q12h, Day 1",1.50 (0.50–4.00) h
same,"Cmax, geometric mean (CV%)","[1]; 100 mg q12h, Day 10",226.87 (33.2) ng/ml
same,"Cmin,ss, geometric mean (CV%)","[1]; 100 mg q12h, Day 10",27.565 (96.3) ng/ml
same,"Fluctuation, geometric mean (CV%)","[1]; 100 mg q12h, Day 10",204.463 (31.3) %
same,"Tmax, median (min–max)","[1]; 100 mg q12h, Day 10",3.00 (0.50–4.00) h
same,accumulation factor Rac (90% CI),[1]; 100 mg q24h,0.98
same,"Cmax, geometric mean (CV%)","[1]; 100 mg q24h, Day 1",182.68 (73.4) ng/ml
same,"Tmax, median (min–max)","[1]; 100 mg q24h, Day 1",2.00 (1.00–4.00) h
same,"Cmax, geometric mean (CV%)","[1]; 100 mg q24h, Day 10",150.84 (76.7) ng/ml
same,"Cmin,ss, geometric mean (CV%)","[1]; 100 mg q24h, Day 10",8.217 (169.4) ng/ml
same,"Fluctuation, geometric mean (CV%)","[1]; 100 mg q24h, Day 10",290.146 (45.7) %
same,"Tmax, median (min–max)","[1]; 100 mg q24h, Day 10",1.50 (1.00–4.00) h
same,accumulation factor Rac (90% CI),[1]; 150 mg q12h,1.38
same,"Cmax, geometric mean (CV%)","[1]; 150 mg q12h, Day 1",295.08 (52.6) ng/ml
same,"Tmax, median (min–max)","[1]; 150 mg q12h, Day 1",2.00 (1.00–4.00) h
same,"Cmax, geometric mean (CV%)","[1]; 150 mg q12h, Day 10",470.78 (38.2) ng/ml
same,"Cmin,ss, geometric mean (CV%)","[1]; 150 mg q12h, Day 10",26.868 (39.2) ng/ml
same,"Fluctuation, geometric mean (CV%)","[1]; 150 mg q12h, Day 10",274.265 (17.3) %
same,"Tmax, median (min–max)","[1]; 150 mg q12h, Day 10",1.25 (0.50–2.00) h
same,accumulation factor Rac (90% CI),[1]; 150 mg q24h,1.16
same,"Cmax, geometric mean (CV%)","[1]; 150 mg q24h, Day 1",236.94 (88.6) ng/ml
same,"Tmax, median (min–max)","[1]; 150 mg q24h, Day 1",3.00 (1.00–6.00) h
same,"Cmax, geometric mean (CV%)","[1]; 150 mg q24h, Day 10",250.23 (70.3) ng/ml
same,"Cmin,ss, geometric mean (CV%)","[1]; 150 mg q24h, Day 10",14.342 (71.1) ng/ml
same,"Fluctuation, geometric mean (CV%)","[1]; 150 mg q24h, Day 10",281.461 (29.1) %
same,"Tmax, median (min–max)","[1]; 150 mg q24h, Day 10",2.50 (1.00–5.00) h
same,accumulation factor Rac (90% CI),[1]; 200 mg q24h,0.94
same,"Cmax, geometric mean (CV%)","[1]; 200 mg q24h, Day 1",327.37 (36.6) ng/ml
same,"Tmax, median (min–max)","[1]; 200 mg q24h, Day 1",2.50 (1.50–4.00) h
same,"Cmax, geometric mean (CV%)","[1]; 200 mg q24h, Day 10",296.88 (58.3) ng/ml
same,"Cmin,ss, geometric mean (CV%)","[1]; 200 mg q24h, Day 10",10.798 (125.4) ng/ml
same,"Fluctuation, geometric mean (CV%)","[1]; 200 mg q24h, Day 10",390.098 (38.5) %
same,"Tmax, median (min–max)","[1]; 200 mg q24h, Day 10",3.00 (1.50–4.00) h
same,time to steady state,"[1]; continuous administration, trough concentrations",approximately 4 days
same,AUC0-t,"[2]; 15.3 mg/kg ZG0128, Female",19.4 ± 7.5 µg·h/mL
same,AUC0-∞,"[2]; 15.3 mg/kg ZG0128, Female",19.4 ± 7.5 µg·h/mL
same,Cmax,"[2]; 15.3 mg/kg ZG0128, Female",4.82 ± 1.25 µg/mL
same,MRT,"[2]; 15.3 mg/kg ZG0128, Female",2.82 ± 0.60 h
same,Tmax,"[2]; 15.3 mg/kg ZG0128, Female",0.5 (0.5-1.0) h
same,t1/2,"[2]; 15.3 mg/kg ZG0128, Female",0.93 ± 0.26 h
same,AUC0-t,"[2]; 15.3 mg/kg ZG0128, Male",24.5 ± 11.3 µg·h/mL
same,AUC0-∞,"[2]; 15.3 mg/kg ZG0128, Male",24.6 ± 11.3 µg·h/mL
same,Cmax,"[2]; 15.3 mg/kg ZG0128, Male",6.66 ± 2.13 µg/mL
same,MRT,"[2]; 15.3 mg/kg ZG0128, Male",2.45 ± 0.29 h
same,Tmax,"[2]; 15.3 mg/kg ZG0128, Male",1.0 (0.5-2.0) h
same,t1/2,"[2]; 15.3 mg/kg ZG0128, Male",0.84 ± 0.20 h
same,AUC0-t,"[2]; 15.3 mg/kg ZG0128, Overall",21.9 µg·h/mL
same,AUC0-∞,"[2]; 15.3 mg/kg ZG0128, Overall",22.0 ± 9.0 µg·h/mL
same,Cmax,"[2]; 15.3 mg/kg ZG0128, Overall",5.74 µg/mL
same,MRT,"[2]; 15.3 mg/kg ZG0128, Overall",2.63 ± 0.47 h
same,Tmax,"[2]; 15.3 mg/kg ZG0128, Overall",0.75 (0.5-2.0) h
same,t1/2,"[2]; 15.3 mg/kg ZG0128, Overall",0.89 ± 0.21 h
same,absolute bioavailability,"[2]; 15.3 mg/kg, by AUC0-t",40.0%
same,AUC0-t,"[2]; 30.5 mg/kg ZG0128, Female",39.9 ± 13.6 µg·h/mL
same,AUC0-∞,"[2]; 30.5 mg/kg ZG0128, Female",40.2 ± 13.2 µg·h/mL
same,Cmax,"[2]; 30.5 mg/kg ZG0128, Female",9.68 ± 3.40 µg/mL
same,MRT,"[2]; 30.5 mg/kg ZG0128, Female",3.46 ± 0.75 h
same,Tmax,"[2]; 30.5 mg/kg ZG0128, Female",2.0 (2.0) h
same,t1/2,"[2]; 30.5 mg/kg ZG0128, Female",2.07 ± 2.24 h
same,AUC0-t,"[2]; 30.5 mg/kg ZG0128, Male",41.6 ± 19.7 µg·h/mL
same,AUC0-∞,"[2]; 30.5 mg/kg ZG0128, Male",43.2 ± 21.9 µg·h/mL
same,Cmax,"[2]; 30.5 mg/kg ZG0128, Male",6.97 ± 1.15 µg/mL
same,MRT,"[2]; 30.5 mg/kg ZG0128, Male",3.95 ± 1.68 h
same,Tmax,"[2]; 30.5 mg/kg ZG0128, Male",1.0 (1.0-2.0) h
same,t1/2,"[2]; 30.5 mg/kg ZG0128, Male",1.58 ± 0.75 h
same,AUC0-t,"[2]; 30.5 mg/kg ZG0128, Overall",40.8 µg·h/mL
same,AUC0-∞,"[2]; 30.5 mg/kg ZG0128, Overall",41.7 ± 16.2 µg·h/mL
same,Cmax,"[2]; 30.5 mg/kg ZG0128, Overall",8.33 µg/mL
same,MRT,"[2]; 30.5 mg/kg ZG0128, Overall",3.70 ± 1.19 h
same,Tmax,"[2]; 30.5 mg/kg ZG0128, Overall",2.0 (1.0-2.0) h
same,t1/2,"[2]; 30.5 mg/kg ZG0128, Overall",1.82 ± 1.52 h
same,AUC0-t,"[2]; 61 mg/kg ZG0128, Female",82.7 ± 31.0 µg·h/mL
same,AUC0-∞,"[2]; 61 mg/kg ZG0128, Female",87.3 ± 31.0 µg·h/mL
same,Cmax,"[2]; 61 mg/kg ZG0128, Female",12.1 ± 2.6 µg/mL
same,MRT,"[2]; 61 mg/kg ZG0128, Female",4.87 ± 1.22 h
same,Tmax,"[2]; 61 mg/kg ZG0128, Female",4.0 (1.0-6.0) h
same,t1/2,"[2]; 61 mg/kg ZG0128, Female",2.14 ± 0.31 h
same,AUC0-t,"[2]; 61 mg/kg ZG0128, Male",124 ± 58 µg·h/mL
same,AUC0-∞,"[2]; 61 mg/kg ZG0128, Male",124 ± 58 µg·h/mL
same,Cmax,"[2]; 61 mg/kg ZG0128, Male",12.8 ± 1.7 µg/mL
same,MRT,"[2]; 61 mg/kg ZG0128, Male",6.20 ± 2.52 h
same,Tmax,"[2]; 61 mg/kg ZG0128, Male",2.0 (2.0-8.0) h
same,t1/2,"[2]; 61 mg/kg ZG0128, Male",1.56 ± 0.59 h
same,AUC0-t,"[2]; 61 mg/kg ZG0128, Overall",103 µg·h/mL
same,AUC0-∞,"[2]; 61 mg/kg ZG0128, Overall",106 ± 46 µg·h/mL
same,Cmax,"[2]; 61 mg/kg ZG0128, Overall",12.4 µg/mL
same,MRT,"[2]; 61 mg/kg ZG0128, Overall",5.54 ± 1.92 h
same,Tmax,"[2]; 61 mg/kg ZG0128, Overall",3.0 (1.0-8.0) h
same,t1/2,"[2]; 61 mg/kg ZG0128, Overall",1.85 ± 0.53 h
same,"Tmax, range over doses","[2]; 15.3, 30.5 and 61 mg/kg ZG0128",0.75 to 3.0 h
same,"plasma elimination half-life t1/2, range over doses","[2]; 15.3, 30.5 and 61 mg/kg ZG0128",0.89 to 1.85 h
same,AUC0-t,[3]; Female,67.6 ± 27.6 µg·h/mL
same,AUC0-∞,[3]; Female,67.8 ± 27.8 µg·h/mL
same,Cmax,[3]; Female,11.0 ± 4.22 µg/mL
same,Tmax,[3]; Female,1.0 h
same,t1/2,[3]; Female,1.81 ± 1.55 h
same,AUC0-t,[3]; Male,35.7 ± 13.5 µg·h/mL
same,AUC0-∞,[3]; Male,36.0 ± 13.8 µg·h/mL
same,Cmax,[3]; Male,6.34 ± 1.23 µg/mL
same,Tmax,[3]; Male,1.0 (1.0-2.0) h
same,t1/2,[3]; Male,2.15 ± 0.62 h
same,AUC0-t,[3]; Overall,51.7 ± 26.1 µg·h/mL
same,AUC0-∞,[3]; Overall,51.9 ± 26.2 µg·h/mL
same,Cmax,[3]; Overall,8.67 ± 3.77 µg/mL
same,Tmax,[3]; Overall,1.0 (1.0-6.0) h
same,t1/2,[3]; Overall,1.98 ± 1.07 h
"Cl.Cl.O.[2H]C1([2H])COCC([2H])([2H])N1c1ccc(Nc2nccc(-c3ccc(C(=O)NCC#N)cc3)n2)cc1 [ZG0128, Jaktinib Dihydrochloride Monohydrate]",day on which steady state was reached,[3]; 30.5 mg/kg once a day,5 days
